The record followed here is ChEMBL document CHEMBL1127770, “2-(1-Cyclopenten-1-yl)-2-[2-(dimethylamino)ethyl]-5-(E)-benzylidene cyclopentanone hydrochlorides: a new series of moderate cytotoxic agents” (1994).

A word on the GI50: it is the concentration at which growth is held to half of that of the control. A higher GI50 goes with lower sensitivity of the cells. For orientation: LC50 means the concentration that kills 50% of the test population. Lower therefore signals a more lethal substance.

The subject of the assay is Panel (Carcinoma cell lines). The assay is described as follows: Cytotoxic activity against human cancer cell lines was determined. The assay is classed as functional.

Take `CN(C)CCC1(C2=CCCC2)CC/C(=C\c2ccccc2)C1=O.Cl` (stereo unspecified): it took 16.2 µM to inhibit growth by half (GI50) and the “Log TCI” value was -4.49.

For the compound `CN(C)CCC1(C2=CCCC2)CC/C(=C\c2ccc(Cl)cc2)C1=O.Cl` (stereo unspecified), the 50% growth inhibitory concentration (GI50) is 7.08 µM, the median lethal concentration (LC50) was 44.7 µM and the “Log TCI” value is listed as -4.72.

For `COc1ccc(/C=C2\CCC(CCN(C)C)(C3=CCCC3)C2=O)cc1Br.Cl` (stereo unspecified), the GI50 is 4.47 µM, the 50% lethal concentration (LC50) was 35.5 µM and the “Log TCI” value was -4.89.

In the case of `COc1cccc(/C=C2\CCC(CCN(C)C)(C3=CCCC3)C2=O)c1.Cl` (stereo unspecified), the concentration for 50% growth inhibition (GI50) is 15.5 µM and the “Log TCI” value is -4.52.

On to `CN(C)CCC1(C2=CCCC2)CC/C(=C\c2ccc3c(c2)OCO3)C1=O.Cl` (stereo unspecified), for which it took 14.8 µM to inhibit growth by half (GI50), the LC50 was 60.3 µM and the “Log TCI” value is -4.52.

On to `COc1ccc(/C=C2\CCC(CCN(C)C)(C3=CCCC3)C2=O)cc1.Cl` (stereo unspecified), for which the 50% growth inhibitory concentration (GI50) is 17.8 µM and the “Log TCI” value was -4.42.

As for `CN(C)CCC1(C2=CCCC2)CC/C(=C\c2ccccc2Cl)C1=O.Cl` (stereo unspecified), the concentration for 50% growth inhibition (GI50) is 11.7 µM, the 50% lethal concentration (LC50) was 60.3 µM and the “Log TCI” value is -4.56.

For `COc1ccccc1/C=C1\CCC(CCN(C)C)(C2=CCCC2)C1=O.Cl` (stereo unspecified), halving of growth (GI50) required 15.8 µM, the LC50 is 70.8 µM and the “Log TCI” value is given as -4.43.
